Experiment [1] in a line: Effect of mono- and multi-protonic acid salts on binding of amikacin to alginate. As to the method:
Various salts were tested for their ability to compete with alginate. Amikacin sulfate (0.1 mL of 1 mg/ml) was added to 0.4 mL solution of 1% Na Alginate and 0.5 mL solution of 200 mM Na salt of an Acid at pH 6.0. Samples were incubated 10 minutes at 37° C. and centrifuged in Centricon-10 for 30 minutes at 4000 rpm. Filtrate was diluted 2 fold with TDX buffer and analyzed for AMK.

Another experiment relates to P. Aeruginosa PAC1. The experiment is described as follows: In-vitro bioactivity of amikacin, modified disk Kirby-Bauer agar diffusion method. It counts as cell-based. Conditions: for Zone size (mm): three values. As to the method:
It has been shown elsewhere […] that amikacin-alginate binding can in fact reduce amikacin bioactivity against PA. One may ask whether binding to citrate will preserve bioactivity or inhibit it similar to alginate. In order to address this, activity of amikacin against P. Aeruginosa PAC1 using modified disk Kirby-Bauer agar diffusion method was tested. […] Absence of supplements was used as a control.
Activity was determined using modified disk Kirby-Bauer agar diffusion method and PAC1 PA strain.
For orientation: A growth-free zone around the sample is the usual read-out of agar diffusion tests.

Experiment [2] can be described thus: Effect of pH on ability of citrate to compete with alginate for amikacin (Centricon-10, TDX). It counts as binding. As to the method: How pH affects the ability of citrate to compete with alginate for amikacin was also tested. Here 0.5 mL sodium alginate (2%) was mixed with 0.4 mL sodium citrate (200 mM) and 0.1 mL amikacin sulfate (1 mg/mL), giving corresponding final concentrations of 1%, 80 mM, and 100 ug/mL, respectively. Two controls using either alginate or citrate alone were employed. Samples were incubated for 10 minutes at 37° C. and unbound amikacin was separated by centrifuging in Centrico-10 device for 30 minutes at 4000 rpm. Amikacin in permeate was measured by TDX (Abbott) and presented as % of total (Table 3).

Experiment [3] in a line: Binding of amikacin to alginate in saline, free amikacin separated on Centricon-10 filter. Conditions: for AMKAlg (bound amikacin, AMKt-AMKf) / AMKAlg/AMKf / AMKfree: saline, no citrate; for AMKfree: total amikacin 92.5 ug/mL. As to the method: The binding of a multicationic drug, such as amikacin, to alginate in presence salts of various (one-, two- and three-protonic) acids was tested. To study the effect of binding of amikacin to alginate, amikacin sulfate, Na citrate and Na alginate were mixed at different proportions and then free (unbound) amikacin was separated on a Cetricon-10 filtering device (MWCO 10 kD). In the absence of citrate, amikacin binds to alginate only, and the amikacin-alginate binding coefficient can be calculated from equation:
[formula] where bound amikacin can be found by subtracting free from total, and alginate free concentration is assumed to be equal to the total concentration due to excess of alginate over amikacin.
As alginate concentration increases, amikacin free measured in permeate decreases (Table 1). According to Equation 1 the ratio AMKAlg/AMKf should be proportional to the concentration of alginate, and the slope of this dependence should equal to the binding coefficient.
If one use a linear regression, the slope obtained gives us an estimate of the amikacin-alginate binding coefficient of PAlg=0.76 (mg/mL)^−1. This means that in presence of 1/PAlg˜1.3 mg/mL alginate approximately half of all amikacin will be bound to alginate.

A short description of experiment [4]: Amikacin-citrate binding determined indirectly from competitive binding with alginate (Centricon filter). Details: AMKAlg (AMKtot—AMKperm) / AMKfree / AMKcitrate: unit not given here. As to the method:
The binding of a multicationic drug, such as amikacin, to alginate in presence salts of various (one-, two- and three-protonic) acids was tested. To study the effect of binding of amikacin to alginate, amikacin sulfate, Na citrate and Na alginate were mixed at different proportions and then free (unbound) amikacin was separated on a Cetricon-10 filtering device (MWCO 10 kD). In the absence of citrate, amikacin binds to alginate only, and the amikacin-alginate binding coefficient can be calculated from equation: […]
In the presence of citrate, amikacin can bind to both alginate and citrate. The amikacin-citrate complex is not large enough to be retained by Centricon filter and will be measured as “free” amikacin, which is actually a sum of free and citrate bound amikacin. For that reason amikacin-citrate binding can not be measured directly. It can, however, be determined indirectly from competitive binding, knowing amikacin-alginate binding coefficient PAlg.
Amikacin-citrate binding coefficient was Pcit=0.076 mM^−1. Thus in the presence of 1/Pcit˜13 mM citrate the concentration of amikacin bound to citrate is approximately equal to the concentration of free amikacin. As one can see from the above data, citrate can compete for amikacin with alginate thus reducing amount of amikacin bound to alginate. 1% Alginate can reduce AMK free concentration ˜7-fold. Citrate at 40 mM reduces this effect increasing unbound AMK ˜2.5 fold.

Experiment [5] can be described thus: Effect of pH on ability of citrate to compete with alginate for amikacin (Centricon-10, TDX). It is filed as binding. The source holds these as a separate data set.
Setting [6] is: 0.1 mL 1 mg/ml amikacin sulfate + 0.4 mL 1% Na Alginate + 0.5 mL 200 mM Na salt of the acid, pH 6.0, 10 minutes at 37° C.
The mark [7] stands for this setting: Alginate 1%, 80 mM Citrate at pH 6-7.
[8] abbreviates: alginate 6 mg/mL, citrate 60 mM.
Setting [9] is: alginate 10 mg/mL, citrate 40 mM.
[10] abbreviates: alginate 14 mg/mL, citrate 20 mM.
Where [11] appears, read: alginate 16 mg/mL, citrate 10 mM.

Values joined by “and” are separate entries in the source; they are usually repeats but may differ in a detail not shown here. Equal values may be shown once. Where a name gives a salt, the structure may show the parent alone.

This is an account of results in patent US9925205B2, “Compositions of multicationic drugs for reducing interactions with polyanionic biomolecules and methods of use thereof” (Insmed Incorporated, priority 2007, dated 2018).

As for `O=C([O-])CCCC(=O)[O-].[Na+].[Na+]` [Sodium glutarate], the “Amikacin not bound to alginate (%)” value is 36.7% in experiment [1] (setting [6]) and ~40% in experiment [1] (0.1 mL 1 mg/ml amikacin sulfate + 0.4 mL 1% Na Alginate + 0.5 mL 200 mM Na salt of the acid, pH 6.0, 10 minutes at 37° C., listed as glutarate).

Regarding `O=C(O)CC(O)(CC(=O)O)C(=O)O` [Sodium citrate], the “Amikacin not bound to alginate (%)” value in experiment [1] (setting [6]) was determined as 72.1%.

With `NCC[C@H](O)C(=O)N[C@@H]1C[C@H](N)[C@@H](O[C@H]2O[C@H](CN)[C@@H](O)[C@H](O)[C@H]2O)[C@H](O)[C@H]1O[C@H]1O[C@H](CO)[C@@H](O)[C@H](N)[C@H]1O` [amikacin], the “Zone size (mm)” value in the experiment with P. Aeruginosa PAC1 (Alginate 1%) is 21 mm; with P. Aeruginosa PAC1 (Alginate + Citrate), 28 mm and 29 mm; in the experiment on P. Aeruginosa PAC1 (Citrate 100 mM) it was 28 mm; in the experiment with P. Aeruginosa PAC1 (Control, MH medium without supplements) it was 28 mm and 29 mm. The “effect on activity of amikacin (in words)” value is recorded as “does not affect activity” in the experiment with P. Aeruginosa PAC1 (Citrate at concentration 100 mM); “citrate actually restored activity of amikacin” with P. Aeruginosa PAC1 (both alginate and citrate present). Besides, the “binding capacity of alginate” value in experiment [2] is listed as “at least 0.05 mg amikacin per mg alginate”. Also, the “Amikacin not bound to alginate (%)” value came to 56.4% in experiment [2] (Alg + Citrate pH 5, alginate 1%, citrate 80 mM, amikacin 100 ug/mL); 70.4% in experiment [2] (Alg + Citrate pH 6, alginate 1%, citrate 80 mM, amikacin 100 ug/mL); 68.1% in experiment [2] (Alg + Citrate pH 7, alginate 1%, citrate 80 mM, amikacin 100 ug/mL); 11.9% in experiment [2] (Alg, no Citrate, alginate 1%, amikacin 100 ug/mL); 12% in experiment [2] (Alg, no Citrate, alginate 1%, amikacin 100 ug/mL, listed as AMK); 100% in experiment [2] (Citrate, no Alginate). For the same compound, the “Amikacin not bound to alginate (%)” value in experiment [1] (Control (no acid salt named)) worked out at 17.7%; in experiment [5] (Alg, no Citrate, AMK 0.5 mg/mL) it was 14.5%. Also, the “AMK binding to alginate” value in experiment [2] (setting [7]) is recorded as ~30%. Further, the “unbound AMK” value in experiment [2] (setting [7]) is ~70%. Further, the “AMK bound by alginate” value in experiment [2] (Alginate 1%, absence of citrate) is recorded as ~88%. Also, the “1/PAlg, alginate concentration at which approximately half of all amikacin is bound to alginate” value in experiment [3] is reported as ~1.3 mg/mL. For the same compound, the “reduction of AMK free concentration by alginate” value in experiment [3] (1% Alginate) is reported as ~7 fold. The “AMKAlg (bound amikacin, AMKt-AMKf)” value in experiment [3] (alginate 0 mg/mL) was 0 µg/mL; in experiment [3] (alginate 6 mg/mL) it was 72.5 µg/mL; in experiment [3] (alginate 10 mg/mL), 79.9 µg/mL; in experiment [3] (alginate 14 mg/mL), 84.5 µg/mL; in experiment [3] (alginate 16 mg/mL) it was 86 µg/mL. Moreover, the AMKAlg/AMKf was determined as 0 in experiment [3] (alginate 0 mg/mL); 3.63 in experiment [3] (alginate 6 mg/mL); 6.34 in experiment [3] (alginate 10 mg/mL); 10.56 in experiment [3] (alginate 14 mg/mL); 13.23 in experiment [3] (alginate 16 mg/mL). Besides, the AMKfree came to 92.5 µg/mL in experiment [3] (alginate 0 mg/mL); 20 µg/mL in experiment [3] (alginate 6 mg/mL); 12.6 µg/mL in experiment [3] (alginate 10 mg/mL); 8 µg/mL in experiment [3] (alginate 14 mg/mL); 6.5 µg/mL in experiment [3] (alginate 16 mg/mL); 92.5 in experiment [4] (alginate 0 mg/mL, citrate 0 mM). Besides, the AMKfree is 9.01 in experiment [4] (setting [8]), 8.00 in experiment [4] (setting [9]), 7.27 in experiment [4] (setting [10]) and 6.81 in experiment [4] (setting [11]). Besides, the “PAlg AMK-Alginate binding coefficient” value in experiment [3] (slope of AMKAlg/AMKf vs alginate concentration, linear regression) is 0.76 (mg/ml)^−1. Also, the “1/Pcit, citrate concentration at which amikacin bound to citrate approximately equals free amikacin” value in experiment [4] is on record as ~13 mM. In experiment [4] (Citrate at 40 mM, 1% Alginate), the “increase of unbound AMK by citrate” value was ~2.5 fold. Moreover, the “AMKAlg (AMKtot—AMKperm)” value worked out at 0 in experiment [4] (alginate 0 mg/mL, citrate 0 mM); 40.9 in experiment [4] (setting [8]); 60.5 in experiment [4] (setting [9]); 77 in experiment [4] (setting [10]); 82.4 in experiment [4] (setting [11]). Also, the AMKcit/AMKf in experiment [4] (alginate 0 mg/mL, citrate 0 mM) came to 0; in experiment [4] (setting [8]) it was 4.72; in experiment [4] (setting [9]) it was 3.00; in experiment [4] (setting [10]) it was 1.13; in experiment [4] (setting [11]), 0.48. Besides, the AMKcitrate came out at 0 in experiment [4] (alginate 0 mg/mL, citrate 0 mM); 42.59 in experiment [4] (setting [8]); 24.00 in experiment [4] (setting [9]); 8.23 in experiment [4] (setting [10]); 3.29 in experiment [4] (setting [11]). The AMKperm in experiment [4] (alginate 0 mg/mL, citrate 0 mM) turned out to be 92.5 µg/mL; in experiment [4] (setting [8]) it was 51.6 µg/mL; in experiment [4] (setting [9]), 32.0 µg/mL; in experiment [4] (setting [10]) it was 15.5 µg/mL; in experiment [4] (setting [11]), 10.1 µg/mL. In experiment [4] (slope of AMKcit/AMKf vs citrate concentration), the “Pcit AMK-Citrate binding coefficient” value came out at 0.076 mM⁻¹. The Alginate binding efficiency in experiment [5] (no citrate, total amikacin 0.5 mg/mL) was 85.5%.

As to Sodium tartarate, the “Amikacin not bound to alginate (%)” value is 41.4% in experiment [1] (setting [6]) and ~40% in experiment [1] (0.1 mL 1 mg/ml amikacin sulfate + 0.4 mL 1% Na Alginate + 0.5 mL 200 mM Na salt of the acid, pH 6.0, 10 minutes at 37° C., listed as taratrate).

On to `CC(=O)[O-].[Na+]` [Sodium acetate], for which the “Amikacin not bound to alginate (%)” value in experiment [1] (setting [6]) is 11.2%. For the same compound, the “effect of the salt on unbound amikacin (in words)” value in experiment [1] (as Table 4) was “not showing any increase in unbound amikacin”.

On to `O=C([O-])/C=C\C(=O)[O-].[Na+].[Na+]` [Sodium maleate], for which the “Amikacin not bound to alginate (%)” value in experiment [1] (setting [6]) was 39.4%; in experiment [1] (0.1 mL 1 mg/ml amikacin sulfate + 0.4 mL 1% Na Alginate + 0.5 mL 200 mM Na salt of the acid, pH 6.0, 10 minutes at 37° C., listed as maleate) it was ~40%.

In the case of `O=C([O-])CCC(=O)[O-].[Na+].[Na+]` [Sodium succinate], the “Amikacin not bound to alginate (%)” value in experiment [1] (setting [6]) was 40.2%; in experiment [1] (0.1 mL 1 mg/ml amikacin sulfate + 0.4 mL 1% Na Alginate + 0.5 mL 200 mM Na salt of the acid, pH 6.0, 10 minutes at 37° C., listed as succinate) it was ~40%.
